Test results published in patent publication US20120016019A1, “PHARMACEUTICAL COMPOSITION FOR TREATING OR PREVENTING CANCER” (priority 2010, published 2012).
Where “and” joins values, the source holds several entries; their conditions need not be identical. Equal values may be shown once. Read-outs that look alike come from different tables or passages of the source.

Legend:
Assay type in all cases: cell-based
BJ = settings: for cell counts, Mean value / cell counts: BJ; for cell counts: single count
Experimental: (§1) As a result, LC-50 curves were generated in the 1st week.
(§2) In the 2nd plate, 7 d of the 1st week (LC-50) is the same as 0 h of the 2nd week (recovery).
(§3) At 0 h of the 2nd week, medium was exchanged with untreated medium for the remainder of the experiment. The untreated controls were not measured in the 2nd week (recovery) due to overconfluence by the end of the 1st week. As a result, Recovery curves were generated in the 2nd week.
(15) BJ—Normal Fibroblasts BJ cells were derived from normal foreskin of a newborn, and have a long lifespan in comparison with other normal human fibroblast cells. Although they have the capacity to proliferate to a maximum of 72 population doublings before the onset of senescence, they are telomerase negative.

Saos-2 = assay: Cell counts, Saos-2
Experimental: (§4) Cancer cell lines HCC 1419, MCF-7, MDA-MB-468, SKBR3, PC3, HT1299, Saos-2, C-6, AsPc, MDA-MB-231, RKO, HeLa and TT, and normal cell lines HME 50 HT, BJ and CCD-1074sk were tested for changes in metabolism (XTT assay) and cell death (cell counts).
(§5) Cells were plated into 48-well Corning CellBind™ plates at densities of 20,000 cells for normal cells and 10,000˜20,000 cells for cancer cells. 24 to 48 h after plating, cells were treated with the composition according to the invention at concentrations of 4.5e-2M. The first time point treated with the composition of the invention is 0 h. At 3 days after the first treatment with the composition of the invention, medium was changed and the composition of the invention at the same concentrations were added to the cultured cells.
(§6) Cells were harvested using Trypsin-EDTA at the designated time points. […] Two 48-well plates were used per cell line, and they were measured at 0 h, 12 h, 24 h, 48 h, 4 d and 7 d, respectively.
(§7) In the 1st plate, cells were treated with the composition according to the invention and medium was changed at 0 h and 3 d. […] As a result, LC-50 curves were generated in the 1st week.
At 0 h of the 2nd week, medium was exchanged with untreated medium for the remainder of the experiment. […] As a result, Recovery curves were generated in the 2nd week.

CCD-1074sk = assay: in vitro; settings: human, 220 nM
Experimental: as §5
(§8) Cells were harvested using Trypsin-EDTA at the designated time points. When total cells for each well were counted with a Beckman-Coulter Z1 Particle Characterization Unit, the vertical axis represents 1/20 of cell number in the Figures attached to the specification, while when counted with a Beckman-Coulter Vi-Cell, the vertical axis represents cell number in the Figures. Two 48-well plates were used per cell line, and they were measured at 0 h, 12 h, 24 h, 48 h, 4 d and 7 d, respectively.
(§9) The viability was determined by using the trypan blue staining in the well of cell counting.

in vitro = settings: human
Experimental: as §5, §8, §9

MDA-MB-231 = assay: Cell counts, MDA-MB-231
Experimental: as §1, §2, §3

SKBR3 = assay: Cell counts, SKBR3; settings: for cell counts: single wells
Experimental: as §4, §5, §6, §7

TT = assay: XTT cell viability assay, TT; settings: for The absorbance, group - Blank: mean minus blank; for The absorbance: single value
Experimental: as §4, §5
Cells were seeded in a 96-well tissue culture plate at a density of 10,000 cells for normal cells and 5,000 cells for cancer cells. After incubation period, the formazan dye formed was quantitated using an ELISA reader. The optimal wavelength used in experiments was 500 nm, and it was measured at 0 h, 12 h, 24 h, 48 h, 4 d and 7 d, respectively. The obtained values were generated using the software SoftMax Pro 4.8.
The cell viability was calculated according to the manufacturer's instructions as follows (the term “blank” means XTT in medium only):
Cellular cytotoxicity was calculated according to the manufacturer's instructions as follows:

[1] = viability (%) calculated from the cell counts

CC(=O)O[C@H]1C(=O)[C@@]2(C)[C@H]([C@H](OC(=O)c3ccccc3)[C@]3(O)C[C@H](OC(=O)[C@H](O)[C@@H](NC(=O)c4ccccc4)c4ccccc4)C(C)=C1C3(C)C)[C@]1(OC(C)=O)CO[C@@H]1C[C@@H]2O [Taxol]
appearance of normal cells (microscopy) (BJ): fully destroyed
proliferation of normal cells (BJ): decreased due to stress by toxicity of Taxol
cell counts, Mean value (BJ; 1st week (LC50), 0 h): 16333
cell counts (BJ; 1st week (LC50), 0 h): 14000 and 17000 and 18000
cell counts, Mean value (BJ; 1st week (LC50), 12 h): 11000
cell counts (BJ; 1st week (LC50), 12 h): 12000 and 9000
cell counts, Mean value (BJ; 1st week (LC50), 24 h): 12667
cell counts (BJ; 1st week (LC50), 24 h): 10000 and 17000 and 11000
cell counts, Mean value (BJ; 1st week (LC50), 48 h): 11667
cell counts (BJ; 1st week (LC50), 48 h): 14000 and 10000 and 11000
cell counts, Mean value (BJ; 1st week (LC50), 4 d): 6333
cell counts (BJ; 1st week (LC50), 4 d): 9000 and 5000
cell counts, Mean value (BJ; 1st week (LC50), 7 d): 6667
cell counts, Mean value (BJ; 2nd week (recovery), 0 h): 19
cell counts, Mean value (BJ; 2nd week (recovery), 24 h): 8
cell counts (BJ; 2nd week (recovery), 24 h): 7 and 9
cell counts, Mean value (BJ; 2nd week (recovery), 48 h): 13
cell counts (BJ; 2nd week (recovery), 48 h): 8 and 14 and 16
cell counts, Mean value (BJ; 2nd week (recovery), 4 d): 11
cell counts, Mean value (BJ; 2nd week (recovery), 7 d): 28
cell counts (BJ; 2nd week (recovery), 7 d): 35 and 29 and 19
process of cell death (microscopy) (Saos-2): cell membranes were ruptured by toxicity of Taxol, and then nuclei of cells changed into black
cell counts (Saos-2; 1st week (LC50), 0 h): 2143 and 2221 and 2135
cell counts, Mean value (Saos-2; 1st week (LC50), 0 h): 2166
cell counts (Saos-2; 1st week (LC50), 12 h): 1756 and 1790 and 1705
cell counts, Mean value (Saos-2; 1st week (LC50), 12 h): 1750
cell counts (Saos-2; 1st week (LC50), 24 h): 1529 and 1376 and 1452
cell counts, Mean value (Saos-2; 1st week (LC50), 24 h): 1452
cell counts (Saos-2; 1st week (LC50), 48 h): 857 and 822 and 776
cell counts, Mean value (Saos-2; 1st week (LC50), 48 h): 818
cell counts, Mean value (Saos-2; 1st week (LC50), 4 d): 420
cell counts, Mean value (Saos-2; 2nd week (recovery), 0 h): 609
cell counts, Mean value (Saos-2; 2nd week (recovery), 24 h): 183
cell counts (Saos-2; 2nd week (recovery), 48 h): 312 and 249 and 165
cell counts, Mean value (Saos-2; 2nd week (recovery), 48 h): 242
cell counts (Saos-2; 2nd week (recovery), 4 d): 416 and 589 and 602
cell counts, Mean value (Saos-2; 2nd week (recovery), 4 d): 536
cell counts, Mean value (Saos-2; 2nd week (recovery), 7 d): 635
viability (%), Mean value (CCD-1074sk; 0 h): 79%
viability (%) calculated from the cell counts (CCD-1074sk; 48 h): 83%
viability (%) calculated from the cell counts (CCD-1074sk; 4 d): 33%
viability at 0 h, 2.2e-07 M (in vitro; [1]): 70%
viability at 24 h, 2.2e-07 M (in vitro; [1]): 71%
viability at 4 d, 2.2e-07 M (in vitro; [1]): 43%
viability at 0 h, 2.2e-07 M (in vitro; viability (%), Mean value): 73%
viability at 24 h, 2.2e-07 M (in vitro; viability (%), Mean value): 80%
viability at 4 d, 2.2e-07 M (in vitro; viability (%), Mean value): 38%
cell counts (MDA-MB-231; 1st week (LC50), 0 h): 47000 and 42000 and 53000
cell counts, Mean value (MDA-MB-231; 1st week (LC50), 0 h): 47333
cell counts (MDA-MB-231; 1st week (LC50), 24 h): 32000 and 39000 and 22000
cell counts, Mean value (MDA-MB-231; 1st week (LC50), 24 h): 31000
cell counts (MDA-MB-231; 1st week (LC50), 48 h): 13000 and 16000 and 23000
cell counts, Mean value (MDA-MB-231; 1st week (LC50), 48 h): 17333
cell counts (MDA-MB-231; 1st week (LC50), 4 d): 19500 and 24000 and 26500
cell counts, Mean value (MDA-MB-231; 1st week (LC50), 4 d): 23333
cell counts, Mean value (MDA-MB-231; 1st week (LC50), 7 d): 9667
growth of the cell population (MDA-MB-231; 2nd week (recovery)): begins to grow and shows the sign of recovering
cell counts (MDA-MB-231; 2nd week (recovery), 0 h): 12500 and 17500 and 22000
cell counts, Mean value (MDA-MB-231; 2nd week (recovery), 0 h): 17333
cell counts (MDA-MB-231; 2nd week (recovery), 24 h): 16000 and 32000 and 24000
cell counts, Mean value (MDA-MB-231; 2nd week (recovery), 24 h): 24000
cell counts, Mean value (MDA-MB-231; 2nd week (recovery), 48 h): 24500
cell counts, Mean value (MDA-MB-231; 2nd week (recovery), 4 d): 22167
cell counts, Mean value (MDA-MB-231; 2nd week (recovery), 7 d): 32000
cell counts, Mean value (SKBR3; 1st week (LC50), 0 h): 2667
cell counts (SKBR3; 1st week (LC50), 0 h): 2000 and 4000
cell counts, Mean value (SKBR3; 1st week (LC50), 24 h): 9333
cell counts (SKBR3; 1st week (LC50), 24 h): 6000 and 11000
cell counts, Mean value (SKBR3; 1st week (LC50), 48 h): 4000
cell counts (SKBR3; 1st week (LC50), 48 h): 4000
cell counts, Mean value (SKBR3; 1st week (LC50), 4 d): 1000
cell counts (SKBR3; 1st week (LC50), 4 d): 1000
cell counts, Mean value (SKBR3; 1st week (LC50), 7 d): 3000
cell counts, Mean value (SKBR3; 2nd week (recovery), 0 h): 70667
cell counts (SKBR3; 2nd week (recovery), 0 h): 60000 and 80000 and 72000
cell counts, Mean value (SKBR3; 2nd week (recovery), 24 h): 49333
cell counts (SKBR3; 2nd week (recovery), 24 h): 32000 and 60000 and 56000
cell counts, Mean value (SKBR3; 2nd week (recovery), 48 h): 44000
cell counts (SKBR3; 2nd week (recovery), 48 h): 56000 and 36000 and 40000
cell counts, Mean value (SKBR3; 2nd week (recovery), 4 d): 17250
cell counts (SKBR3; 2nd week (recovery), 4 d): 15000 and 12500 and 22000
cell counts, Mean value (SKBR3; 2nd week (recovery), 7 d): 10000
cell counts (SKBR3; 2nd week (recovery), 7 d): 10000 and 12000 and 8000
The cytotoxicity (TT; 1st week (LC50), 0 h): 0.6095
The viability (TT; 1st week (LC50), 0 h): 0.3905
The absorbance, group - Blank (TT; 1st week (LC50), 0 h): 0.1760
The absorbance, Mean value (TT; 1st week (LC50), 0 h): 0.4394
The absorbance (TT; 1st week (LC50), 0 h): 0.4452 and 0.4456
The cytotoxicity (TT; 1st week (LC50), 12 h): −0.2604
The viability (TT; 1st week (LC50), 12 h): 1.2604
The absorbance, group - Blank (TT; 1st week (LC50), 12 h): 1.5590
The absorbance, Mean value (TT; 1st week (LC50), 12 h): 1.8224
The absorbance (TT; 1st week (LC50), 12 h): 1.512 and 1.5452
The cytotoxicity (TT; 1st week (LC50), 24 h): −0.0831
The viability (TT; 1st week (LC50), 24 h): 1.0831
The absorbance, group - Blank (TT; 1st week (LC50), 24 h): 2.2745
The absorbance, Mean value (TT; 1st week (LC50), 24 h): 2.5379
The cytotoxicity (TT; 1st week (LC50), 48 h): 0.5671
The viability (TT; 1st week (LC50), 48 h): 0.4329
The absorbance, group - Blank (TT; 1st week (LC50), 48 h): 1.1834
The absorbance, Mean value (TT; 1st week (LC50), 48 h): 1.4468
The absorbance (TT; 1st week (LC50), 48 h): 1.6834 and 1.3166
The cytotoxicity (TT; 1st week (LC50), 4 d): −0.3186
The viability (TT; 1st week (LC50), 4 d): 1.3186
The absorbance, group - Blank (TT; 1st week (LC50), 4 d): 1.9816
The cytotoxicity (TT; 1st week (LC50), 7 d): 0.5080
The viability (TT; 1st week (LC50), 7 d): 0.4920
The absorbance, group - Blank (TT; 1st week (LC50), 7 d): 0.9498
The absorbance, Mean value (TT; 1st week (LC50), 7 d): 1.2132
The absorbance (TT; 1st week (LC50), 7 d): 1.2763
The cytotoxicity (TT; 2nd week (recovery), 0 h): −3.3443
The viability (TT; 2nd week (recovery), 0 h): 4.3443
The absorbance, group - Blank (TT; 2nd week (recovery), 0 h): 1.9578
The absorbance, Mean value (TT; 2nd week (recovery), 0 h): 2.2212
The cytotoxicity (TT; 2nd week (recovery), 12 h): −0.1062
The viability (TT; 2nd week (recovery), 12 h): 1.1062
The absorbance, group - Blank (TT; 2nd week (recovery), 12 h): 2.3230
The absorbance, Mean value (TT; 2nd week (recovery), 12 h): 2.5864
The cytotoxicity (TT; 2nd week (recovery), 24 h): 0.5481
The viability (TT; 2nd week (recovery), 24 h): 0.4519
The absorbance, group - Blank (TT; 2nd week (recovery), 24 h): 1.2354
The absorbance, Mean value (TT; 2nd week (recovery), 24 h): 1.4988
The cytotoxicity (TT; 2nd week (recovery), 48 h): 0.6857
The viability (TT; 2nd week (recovery), 48 h): 0.3143
The absorbance, group - Blank (TT; 2nd week (recovery), 48 h): 0.4723
The absorbance, Mean value (TT; 2nd week (recovery), 48 h): 0.7357
The cytotoxicity (TT; 2nd week (recovery), 4 d): 0.8411
The viability (TT; 2nd week (recovery), 4 d): 0.1589
The absorbance, group - Blank (TT; 2nd week (recovery), 4 d): 0.3067
The absorbance, Mean value (TT; 2nd week (recovery), 4 d): 0.5701
The absorbance (TT; 2nd week (recovery), 4 d): 0.4887 and 0.7079 and 0.5136
The cytotoxicity (TT; 2nd week (recovery), 7 d): −3.3443
The viability (TT; 2nd week (recovery), 7 d): 4.3443
The absorbance, group - Blank (TT; 2nd week (recovery), 7 d): 1.9578
The absorbance, Mean value (TT; 2nd week (recovery), 7 d): 0.2634
The absorbance (TT; 2nd week (recovery), 7 d): 0.2616 and 0.2542 and 0.2744
